The nature of experiment [1]: viability of PTEN-deleted HCT116 cells – cell-based, HCT116 PTEN knockout, dose response (AID 1047).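 Further: HCT116 colon tumor cells with PTEN knocked out; cells exposed to compound for 60 hours before readout; potency for loss of cell viability measured by luminescence.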 Type of experiment: functional.
Experiment [2] can be described thus: viability of HCT116 lacking mutant beta-catenin – cell-based, human colon tumor, dose response (AID 1045).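 Further: HCT116 colon tumor cells with beta catenin knocked out; cells exposed to compound for 60 hours.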 In kind it is functional.
Experiment [3] is described as follows: HPDE-C7 pancreatic duct cell viability loss – fluorescence, HTS (AID 430). In kind it is functional, cell-based. The following applies: Homo sapiens.
The nature of experiment [4]: viability loss of HPDE-C7K cells – cell-based, fluorescence, HTS, primary screen (AID 431). Type of experiment: functional. The following applies: Homo sapiens.
For a further experiment, the target named is Estrogen receptor beta (Homo sapiens, UniProt Q92731).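 Further: recombinant ER-beta bound to coactivator SRC1 peptide in presence of estradiol agonist; inhibitors block coactivator peptide binding and lower the FRET signal.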
Experiment [5] deals with DNA dC->dU-editing enzyme APOBEC-3A (Homo sapiens, UniProt P31941). As to the kind of experiment: A3A deaminase inhibition for selectivity – biochemical, dose response (AID 504722). Type of experiment: functional.
For experiment [6], the target named is DNA dC->dU-editing enzyme APOBEC-3G (Homo sapiens, UniProt Q9HC16). As to the kind of experiment: Dose Response confirmation of small molecule APOBEC3G DNA Deaminase Inhibitors via a fluorescence-based single-stranded DNA deaminase assay. [Related pubchem assays (depositor defined):AID493012, AID493028]. Type of experiment: functional.
Another experiment concerns the target T1, Coagulation factor XII (Homo sapiens, UniProt P00748).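 Further: activated factor XIIa alpha cleaving a fluorogenic AMC peptide substrate; inhibitor potency from loss of enzyme activity.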
T1 sequence (P00748 whole entry): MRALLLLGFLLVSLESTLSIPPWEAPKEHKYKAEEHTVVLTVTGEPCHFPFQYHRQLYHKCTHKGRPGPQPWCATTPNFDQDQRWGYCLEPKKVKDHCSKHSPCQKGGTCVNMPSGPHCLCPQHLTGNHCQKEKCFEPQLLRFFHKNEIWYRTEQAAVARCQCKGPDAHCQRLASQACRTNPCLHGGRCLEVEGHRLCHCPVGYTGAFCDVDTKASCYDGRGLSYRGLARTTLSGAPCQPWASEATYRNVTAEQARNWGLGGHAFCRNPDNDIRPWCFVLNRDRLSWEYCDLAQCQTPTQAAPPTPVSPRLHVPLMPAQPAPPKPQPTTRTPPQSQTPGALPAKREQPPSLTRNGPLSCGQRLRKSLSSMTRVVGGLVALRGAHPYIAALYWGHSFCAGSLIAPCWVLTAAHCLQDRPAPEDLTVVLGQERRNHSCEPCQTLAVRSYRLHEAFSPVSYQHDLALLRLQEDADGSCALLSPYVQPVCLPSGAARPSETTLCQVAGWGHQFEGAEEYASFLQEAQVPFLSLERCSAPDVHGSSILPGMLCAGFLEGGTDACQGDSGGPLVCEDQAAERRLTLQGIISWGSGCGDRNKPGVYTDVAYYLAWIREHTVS
Type of experiment: functional.

The target in another experiment is Cytochrome P450 2C19 (Homo sapiens, UniProt P33261). As to the kind of experiment: Cytochrome panel assay with activity outcomes. Panel member name: p450-cyp2c19 Compounds with AC50 equal or less than 10 uM are considered active. Type of experiment: functional. The following applies: read-out: AC50.
Another experiment has as its target Cytochrome P450 2D6 (Homo sapiens, UniProt P10635).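 Further: CYP2D6 member of a cytochrome P450 panel assay.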
A short description of experiment [7]: Trypanosoma cruzi growth suppression in host cells – NIH3T3 host cells, beta-gal luminescence, confirmation (AID 2044).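 Further: intracellular parasites grown in NIH/3T3 mouse fibroblasts as host cells; luminescent beta-galactosidase reporter signal from transgenic T. cruzi replicating inside host cells; inhibitors lower the luminescence signal.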 In kind it is functional, cell-based.
The nature of experiment [8]: NIH3T3 cell viability loss – ATP luminescence, mouse fibroblasts, counter-screen, dose response (AID 2010).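 Further: cells exposed to compound for about 90 hours before reading.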 In kind it is functional, cell-based. A general note: A counterscreen serves to expose hits that act by an unwanted route or on another target.
In experiment [9] the target is T2, Short transient receptor potential channel 4 (Mus musculus, UniProt Q9QUQ5).
T2 sequence (Q9QUQ5 whole entry): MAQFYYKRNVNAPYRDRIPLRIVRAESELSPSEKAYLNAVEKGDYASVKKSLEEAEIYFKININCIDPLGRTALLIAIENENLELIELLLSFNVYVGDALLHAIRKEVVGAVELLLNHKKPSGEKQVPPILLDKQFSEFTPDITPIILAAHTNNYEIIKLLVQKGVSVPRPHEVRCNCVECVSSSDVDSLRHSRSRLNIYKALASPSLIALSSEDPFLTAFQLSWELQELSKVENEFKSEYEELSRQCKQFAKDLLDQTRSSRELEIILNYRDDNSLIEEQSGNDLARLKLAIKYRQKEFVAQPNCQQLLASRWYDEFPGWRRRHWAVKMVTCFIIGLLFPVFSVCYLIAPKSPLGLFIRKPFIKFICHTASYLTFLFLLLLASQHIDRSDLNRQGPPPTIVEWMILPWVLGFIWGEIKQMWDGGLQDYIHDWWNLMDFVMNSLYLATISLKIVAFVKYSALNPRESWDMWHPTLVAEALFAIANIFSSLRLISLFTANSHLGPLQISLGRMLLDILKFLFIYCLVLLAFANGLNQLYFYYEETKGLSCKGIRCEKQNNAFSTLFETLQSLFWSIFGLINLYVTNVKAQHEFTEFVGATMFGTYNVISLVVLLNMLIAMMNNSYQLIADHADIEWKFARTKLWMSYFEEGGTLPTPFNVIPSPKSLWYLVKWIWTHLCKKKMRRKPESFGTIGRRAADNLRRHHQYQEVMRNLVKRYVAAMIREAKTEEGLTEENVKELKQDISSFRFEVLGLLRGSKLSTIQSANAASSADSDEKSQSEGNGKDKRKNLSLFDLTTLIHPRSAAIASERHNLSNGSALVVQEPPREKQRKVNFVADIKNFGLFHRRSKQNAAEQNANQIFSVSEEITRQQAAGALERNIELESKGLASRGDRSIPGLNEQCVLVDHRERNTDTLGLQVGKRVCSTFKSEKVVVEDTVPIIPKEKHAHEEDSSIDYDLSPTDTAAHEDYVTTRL
As to the kind of experiment: block of DAMGO-driven TRPC4 calcium entry – cell-based, HEK293 TRPC4/mu-opioid, Fluo-4 calcium, dose response (AID 434942).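 Further: potency of inhibitors blocking the TRPC4 calcium response.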 In kind it is functional.

In another experiment the target is Large T antigen (Simian virus 40, UniProt P03070). In kind it is functional, Betapolyomavirus macacae.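 Further: Confirmatory-stage PubChem screen for compounds that inhibit SV40 T antigen.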
The target in experiment [10] is Luciferin 4-monooxygenase (Photinus pyralis, UniProt P08659). As to the kind of experiment: inhibition of purified Photinus pyralis luciferase – biochemical, luminescence, dose response (AID 1891).
Experiment [11] in a line: Luminescence Cell-Based Dose Confirmation HTS to Identify Inhibitors of Platelet Dense Granule Release. [Related pubchem assays: 1663 (Primary HTS), 1678 (Summary of Project)]. In kind it is functional.
Experiment [12] deals with T3, Replicative DNA helicase DnaB (Mycobacterium tuberculosis, UniProt P9WMR3).
T3 sequence (P9WMR3 whole entry): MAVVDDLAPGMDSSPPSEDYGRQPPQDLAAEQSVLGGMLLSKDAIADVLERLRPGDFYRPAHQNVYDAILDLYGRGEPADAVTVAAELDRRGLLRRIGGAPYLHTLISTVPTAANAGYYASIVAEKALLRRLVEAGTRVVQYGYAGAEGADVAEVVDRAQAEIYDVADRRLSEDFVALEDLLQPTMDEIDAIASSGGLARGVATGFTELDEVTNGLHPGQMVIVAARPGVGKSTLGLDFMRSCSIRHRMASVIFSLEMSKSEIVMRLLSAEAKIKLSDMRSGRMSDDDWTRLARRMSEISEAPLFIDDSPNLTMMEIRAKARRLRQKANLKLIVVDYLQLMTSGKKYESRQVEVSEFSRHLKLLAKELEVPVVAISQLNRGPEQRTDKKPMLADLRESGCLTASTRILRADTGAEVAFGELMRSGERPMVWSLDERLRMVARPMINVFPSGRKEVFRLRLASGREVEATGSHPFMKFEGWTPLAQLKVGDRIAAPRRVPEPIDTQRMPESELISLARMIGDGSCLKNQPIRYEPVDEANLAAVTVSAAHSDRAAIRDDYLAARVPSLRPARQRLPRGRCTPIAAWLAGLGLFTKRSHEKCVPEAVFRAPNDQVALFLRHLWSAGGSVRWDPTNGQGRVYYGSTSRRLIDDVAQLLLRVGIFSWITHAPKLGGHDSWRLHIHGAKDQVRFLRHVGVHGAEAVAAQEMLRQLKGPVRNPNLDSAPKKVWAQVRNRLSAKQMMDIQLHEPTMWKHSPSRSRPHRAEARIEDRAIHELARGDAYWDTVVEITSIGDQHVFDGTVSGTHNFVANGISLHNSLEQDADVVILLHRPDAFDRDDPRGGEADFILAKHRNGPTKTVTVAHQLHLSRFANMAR
As to the kind of experiment: DnaB intein splicing inhibitors, dose response, biochemical, cell-free fluorescence (AID 449749). In kind it is functional.

Another experiment addresses T4, Protein RecA (Mycobacterium tuberculosis, UniProt P9WHJ3).
T4 sequence (P9WHJ3 whole entry): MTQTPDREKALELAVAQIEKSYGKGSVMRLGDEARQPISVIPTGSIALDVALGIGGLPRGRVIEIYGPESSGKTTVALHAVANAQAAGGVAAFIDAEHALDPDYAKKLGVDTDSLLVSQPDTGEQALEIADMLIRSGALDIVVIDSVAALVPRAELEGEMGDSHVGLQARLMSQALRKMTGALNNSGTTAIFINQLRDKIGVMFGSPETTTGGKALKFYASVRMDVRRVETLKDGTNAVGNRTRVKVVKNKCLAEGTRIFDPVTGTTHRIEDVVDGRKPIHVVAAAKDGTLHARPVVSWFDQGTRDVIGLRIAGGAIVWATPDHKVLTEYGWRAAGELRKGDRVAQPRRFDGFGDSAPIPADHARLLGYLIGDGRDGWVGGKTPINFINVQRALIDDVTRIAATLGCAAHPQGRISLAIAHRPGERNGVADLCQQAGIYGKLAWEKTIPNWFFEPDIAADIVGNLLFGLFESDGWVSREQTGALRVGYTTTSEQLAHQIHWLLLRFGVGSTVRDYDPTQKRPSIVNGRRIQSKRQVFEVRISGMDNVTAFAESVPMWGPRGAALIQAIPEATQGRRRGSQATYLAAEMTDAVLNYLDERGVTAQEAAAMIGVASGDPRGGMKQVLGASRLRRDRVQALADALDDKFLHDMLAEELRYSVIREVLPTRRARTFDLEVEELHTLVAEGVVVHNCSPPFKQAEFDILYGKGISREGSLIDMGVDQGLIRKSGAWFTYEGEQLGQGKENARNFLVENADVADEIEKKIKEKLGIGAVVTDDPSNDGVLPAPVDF
As to the kind of experiment: Fluorescence Cell-Free Homogeneous Dose Retest to Identify Inhibitors of RecA-Intein Splicing Activity. [Related pubchem assays (depositor defined):AID2097, AID2223, AID489010, AID492950]. In kind it is functional.

The nature of experiment [13]: viability loss in THP-1 monocytes – THP-1 cells, cytotoxicity control for Vif-APOBEC3G degradation inhibitor project, dose response (AID 1117359). In kind it is functional. The following applies: THP-1.
Experiment [14] is described as follows: THP-1 cell cytotoxicity, dose response, cytotoxicity control for non-replicating M. tuberculosis project (AID 489025). In kind it is functional.
Experiment [15] in a line: Vero E6 cell cytotoxicity, dose response, cytotoxicity control for non-replicating M. tuberculosis project, secondary assay (AID 492998). Type of experiment: functional, VeroE6. Conditions: Vero C1008.
The nature of another experiment: cells. In kind it is functional.

Structures are written as SMILES. Active and inactive are the calls of the source. A value given as a limit tells only on which side of the number the result lay.

13 molecules from ChEMBL document CHEMBL1201862, “PubChem BioAssay data set” (2004) can be followed below.

Sequence of Estrogen receptor beta (Q92731 whole entry): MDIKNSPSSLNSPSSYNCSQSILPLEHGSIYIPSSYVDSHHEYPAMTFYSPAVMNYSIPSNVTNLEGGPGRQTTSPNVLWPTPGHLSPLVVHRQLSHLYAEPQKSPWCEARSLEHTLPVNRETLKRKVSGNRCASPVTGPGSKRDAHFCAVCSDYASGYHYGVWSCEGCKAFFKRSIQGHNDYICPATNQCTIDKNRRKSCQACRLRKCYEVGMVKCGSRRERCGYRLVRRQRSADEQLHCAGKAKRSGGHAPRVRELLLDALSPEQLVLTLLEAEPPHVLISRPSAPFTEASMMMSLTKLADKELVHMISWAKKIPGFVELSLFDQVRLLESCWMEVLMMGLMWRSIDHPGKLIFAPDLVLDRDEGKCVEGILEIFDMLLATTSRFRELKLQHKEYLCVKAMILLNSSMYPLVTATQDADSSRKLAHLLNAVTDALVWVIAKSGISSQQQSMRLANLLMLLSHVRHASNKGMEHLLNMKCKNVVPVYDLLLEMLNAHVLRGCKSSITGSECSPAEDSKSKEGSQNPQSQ
Sequence of DNA dC->dU-editing enzyme APOBEC-3G (Q9HC16 whole entry): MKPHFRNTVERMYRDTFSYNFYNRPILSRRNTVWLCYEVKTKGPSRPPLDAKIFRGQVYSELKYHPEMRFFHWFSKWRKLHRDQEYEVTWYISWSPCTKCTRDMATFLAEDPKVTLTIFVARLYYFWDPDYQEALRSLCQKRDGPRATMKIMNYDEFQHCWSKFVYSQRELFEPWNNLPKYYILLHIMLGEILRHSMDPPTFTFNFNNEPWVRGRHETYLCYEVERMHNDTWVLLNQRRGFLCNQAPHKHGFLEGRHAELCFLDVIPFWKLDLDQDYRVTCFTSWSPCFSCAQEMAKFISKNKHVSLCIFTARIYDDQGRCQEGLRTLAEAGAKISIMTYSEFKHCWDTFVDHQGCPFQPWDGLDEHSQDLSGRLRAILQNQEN
Sequence of Cytochrome P450 2C19 (P33261 whole entry): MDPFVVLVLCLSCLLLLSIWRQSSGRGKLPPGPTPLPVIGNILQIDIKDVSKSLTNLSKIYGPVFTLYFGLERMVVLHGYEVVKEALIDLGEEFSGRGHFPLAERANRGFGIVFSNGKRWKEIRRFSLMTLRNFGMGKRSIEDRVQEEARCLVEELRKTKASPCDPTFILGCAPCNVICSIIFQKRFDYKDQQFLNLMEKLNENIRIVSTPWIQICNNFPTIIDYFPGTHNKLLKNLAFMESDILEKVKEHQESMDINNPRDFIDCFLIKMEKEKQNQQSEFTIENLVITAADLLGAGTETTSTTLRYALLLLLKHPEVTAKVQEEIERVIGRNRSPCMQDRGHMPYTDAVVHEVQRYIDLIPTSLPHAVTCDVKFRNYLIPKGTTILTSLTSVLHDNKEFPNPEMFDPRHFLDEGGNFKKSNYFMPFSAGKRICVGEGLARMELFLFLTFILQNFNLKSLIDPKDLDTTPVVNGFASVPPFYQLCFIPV
Sequence of Cytochrome P450 2D6 (P10635 whole entry): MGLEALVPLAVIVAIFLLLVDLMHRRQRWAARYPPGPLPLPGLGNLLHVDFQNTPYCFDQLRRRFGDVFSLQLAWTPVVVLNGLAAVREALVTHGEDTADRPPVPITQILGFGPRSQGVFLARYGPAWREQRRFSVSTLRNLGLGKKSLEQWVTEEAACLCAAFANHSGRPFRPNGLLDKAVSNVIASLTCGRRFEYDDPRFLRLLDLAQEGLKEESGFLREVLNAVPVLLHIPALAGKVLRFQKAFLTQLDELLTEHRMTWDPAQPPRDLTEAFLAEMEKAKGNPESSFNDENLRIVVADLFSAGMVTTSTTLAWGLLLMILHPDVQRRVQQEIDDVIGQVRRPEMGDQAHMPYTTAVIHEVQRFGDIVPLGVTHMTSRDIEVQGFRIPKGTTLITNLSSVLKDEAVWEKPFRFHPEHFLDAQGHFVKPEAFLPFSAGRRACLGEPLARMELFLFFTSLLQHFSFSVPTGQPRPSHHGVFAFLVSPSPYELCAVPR
Sequence of DNA dC->dU-editing enzyme APOBEC-3A (P31941 whole entry): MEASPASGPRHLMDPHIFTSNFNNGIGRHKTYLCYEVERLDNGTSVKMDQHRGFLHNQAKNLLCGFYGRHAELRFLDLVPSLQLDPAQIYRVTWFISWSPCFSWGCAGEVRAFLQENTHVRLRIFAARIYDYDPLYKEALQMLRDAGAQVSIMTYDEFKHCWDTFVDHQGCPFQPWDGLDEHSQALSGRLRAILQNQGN
Sequence of Luciferin 4-monooxygenase (P08659 whole entry): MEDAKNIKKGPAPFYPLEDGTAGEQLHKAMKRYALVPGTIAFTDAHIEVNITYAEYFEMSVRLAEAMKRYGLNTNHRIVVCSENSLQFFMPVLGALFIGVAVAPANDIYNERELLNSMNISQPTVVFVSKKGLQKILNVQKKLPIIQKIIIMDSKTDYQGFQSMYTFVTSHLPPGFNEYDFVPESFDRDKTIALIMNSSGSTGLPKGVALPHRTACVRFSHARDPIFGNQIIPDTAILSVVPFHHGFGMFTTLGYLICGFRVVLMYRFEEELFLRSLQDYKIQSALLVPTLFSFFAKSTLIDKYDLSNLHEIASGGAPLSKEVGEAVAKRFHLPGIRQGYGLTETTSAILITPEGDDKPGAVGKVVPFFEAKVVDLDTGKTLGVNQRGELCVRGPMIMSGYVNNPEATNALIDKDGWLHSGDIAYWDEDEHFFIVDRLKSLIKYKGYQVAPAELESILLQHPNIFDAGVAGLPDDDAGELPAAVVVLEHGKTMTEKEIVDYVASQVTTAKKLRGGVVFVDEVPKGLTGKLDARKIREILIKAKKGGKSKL
Sequence of Large T antigen (P03070 whole entry): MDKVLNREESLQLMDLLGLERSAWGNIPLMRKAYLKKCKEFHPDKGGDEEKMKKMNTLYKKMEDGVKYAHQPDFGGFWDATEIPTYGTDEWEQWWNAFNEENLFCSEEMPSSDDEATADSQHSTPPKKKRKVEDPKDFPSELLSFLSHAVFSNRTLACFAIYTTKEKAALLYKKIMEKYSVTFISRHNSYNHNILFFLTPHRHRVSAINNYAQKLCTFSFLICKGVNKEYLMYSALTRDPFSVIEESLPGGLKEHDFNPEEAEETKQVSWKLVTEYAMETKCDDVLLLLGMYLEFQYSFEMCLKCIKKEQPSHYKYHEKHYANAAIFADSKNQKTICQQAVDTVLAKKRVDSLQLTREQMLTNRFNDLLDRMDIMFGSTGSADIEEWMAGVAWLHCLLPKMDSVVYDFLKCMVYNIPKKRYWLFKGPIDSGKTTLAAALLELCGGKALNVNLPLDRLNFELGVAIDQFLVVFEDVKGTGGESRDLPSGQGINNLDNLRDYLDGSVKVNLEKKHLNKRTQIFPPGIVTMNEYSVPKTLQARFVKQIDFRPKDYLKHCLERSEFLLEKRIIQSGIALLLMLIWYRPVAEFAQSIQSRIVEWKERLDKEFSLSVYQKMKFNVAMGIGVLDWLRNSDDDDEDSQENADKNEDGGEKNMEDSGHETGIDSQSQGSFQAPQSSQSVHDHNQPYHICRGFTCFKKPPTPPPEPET

For `Cc1cccc(-n2c(O)nc3c(C(N)=O)nc(-c4ccccc4Cl)nc32)c1`, the half-maximal effective concentration (EC50) (usually the concentration that produces a half-maximal response) was 10.5 µM (active) in experiment [1] and 11.2 µM (active) in [2].

Regarding `Cc1nn2c(-c3cccc(NC(=O)CSc4nc5ccccc5o4)c3)nnc2c2ccccc12`, the concentration for a half-maximal effect (EC50) in [3] was 7.91 µM (active); in experiment [4], 7.73 µM (active). Besides, the concentration for half-maximal inhibition (IC50) (in general, the concentration at which inhibition is half-maximal) at Estrogen receptor beta is reported as > 50 µM (not active).

Consider `S=c1[nH]nc(Cc2cccs2)n1-c1ccccc1`, for which the IC50 was > 100 µM (inactive) in experiment [5] and 7.51 µM (active) in experiment [6].

As to `COC(=O)c1cccc(NS(=O)(=O)c2ccc(OC)c(OC)c2)c1C`, the IC50 on Coagulation factor XII was > 50 µM (inactive).

On to `Cc1cccc(NC(S)=NC2CC3CCCC(C2)N3Cc2cccs2)c1` (configuration not stated), for which the EC50 was 65.3 µM (active) in [1] and 92.3 µM (active) in [2]. The AC50 – broadly, the concentration at which the activity in the assay is half-maximal – on Cytochrome P450 2C19 is 28.2 µM (inconclusive); at Cytochrome P450 2D6, 3.98 µM (inconclusive).

In the case of `O=C(c1ccc(Cl)c([N+](=O)[O-])c1)N(Cc1ccc(Cl)cc1)C1CCS(=O)(=O)C1` (configuration not stated), the EC50 in experiment [1] is 26.8 µM (active); in experiment [2], 17.9 µM (active).

With `O=c1n(Cc2ccc(Cl)cc2)c2sc3c(c2c2ncnn12)CCCC3`, the EC50 in experiment [3] is 13.3 µM (active); in experiment [4], 13.1 µM (active).

In the case of `OCCCCNCc1ccc(OCc2ccc(Cl)cc2Cl)cc1`, the EC50 in experiment [7] is 1.68 µM (active); in [1], 10.9 µM (active); in experiment [8], 17.3 µM (active); in [2], 9.83 µM (active).

On to `COC(=O)CSc1nnc(-c2sc3cc(OC)ccc3c2Cl)n1C`, for which the EC50 in experiment [9] is 0.531 µM (active). For the same molecule, the IC50 at Coagulation factor XII is > 50 µM (inactive).

Turning to `COc1ccc(N2C(=O)C(Cl)=C(N3CCCC(C)C3)C2=O)cc1` (configuration not stated), at Coagulation factor XII, the IC50 was > 50 µM (inactive).

Turning to `CCOc1cc(/C=N/NC(=O)N/N=C/c2ccc(O)c(OCC)c2)ccc1O`, the IC50 on Large T antigen was 4.27 µM (active). Moreover, the EC50 in experiment [10] was 1.2 µM (active); in experiment [11], 11.8 µM (active).

As to `CC1=C/C(=N/c2c(C)n(C)n(-c3ccccc3)c2=O)C=CC1=O`, in experiment [12], the AC50 was 29.5 µM (active). Further, the EC50 on Protein RecA was 14 µM (active). Besides, the cytotoxic concentration (CC50) (in general, the concentration that lowers cell viability or growth by half) in experiment [13] was > 40 µM (active).

Turning to `Cc1nn(-c2cccc(Cl)c2)c(O)c1/C=N/n1c(C)nc2ccccc2c1=O`, the values for the CC50 in [14] and in experiment [15] were 28.7 µM (active) and > 20 µM (active), respectively. In addition, the half-inhibitory concentration (IC50) in the experiment “cells” is 45.1 µM (active).
